Reference: publication PMC7486443, “Generation of Phenothiazine with Potent Anti-TLK1 Activity for Prostate Cancer Therapy” (iScience, 2020)

How the values were obtained:
Experiment in all cases: biochemical
Set-up in all cases: DiscoverX KINOMEscan scanMAX competition binding panel, single concentration, percent of control; remaining binding: dose or concentration left out as unconfirmed
Conditions in all cases: KINOMEscan binding, percent of control; read-out: Table S4_SCANMAX REPORT - related to Fig. 1 / Percent Control
[1] = molecular target: T1, ABL1(T315I)-phosphorylated (Homo sapiens, UniProt P00519, T315I)
T1 construct: phosphorylated

ASK1 = molecular target: T2, ASK1 (Homo sapiens, UniProt Q99683)
T2 construct: gene MAP3K5

CDK7 = CDK7 (Homo sapiens, UniProt P50613)
EIF2AK1 = EIF2AK1 (Homo sapiens, UniProt Q9BQI3)
Chain of EIF2AK1 (Q9BQI3 whole entry): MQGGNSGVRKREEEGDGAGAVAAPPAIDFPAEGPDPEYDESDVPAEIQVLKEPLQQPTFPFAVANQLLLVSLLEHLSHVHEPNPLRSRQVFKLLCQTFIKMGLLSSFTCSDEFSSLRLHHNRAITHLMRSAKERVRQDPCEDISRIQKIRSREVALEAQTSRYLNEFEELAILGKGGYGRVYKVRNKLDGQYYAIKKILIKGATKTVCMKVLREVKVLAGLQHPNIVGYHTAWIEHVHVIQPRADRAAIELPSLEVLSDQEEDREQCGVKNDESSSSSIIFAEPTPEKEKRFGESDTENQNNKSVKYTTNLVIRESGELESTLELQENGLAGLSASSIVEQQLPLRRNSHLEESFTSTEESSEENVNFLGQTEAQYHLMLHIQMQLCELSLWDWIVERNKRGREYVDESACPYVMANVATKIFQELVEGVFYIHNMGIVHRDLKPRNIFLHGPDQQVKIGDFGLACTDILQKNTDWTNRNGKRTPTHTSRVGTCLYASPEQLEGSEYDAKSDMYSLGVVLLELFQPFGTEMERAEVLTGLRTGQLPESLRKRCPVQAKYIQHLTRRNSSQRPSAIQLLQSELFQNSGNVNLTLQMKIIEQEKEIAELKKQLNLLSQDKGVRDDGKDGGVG

EPHB2 = EPHB2 (Homo sapiens, UniProt P29323)
Chain of EPHB2 (P29323 whole entry): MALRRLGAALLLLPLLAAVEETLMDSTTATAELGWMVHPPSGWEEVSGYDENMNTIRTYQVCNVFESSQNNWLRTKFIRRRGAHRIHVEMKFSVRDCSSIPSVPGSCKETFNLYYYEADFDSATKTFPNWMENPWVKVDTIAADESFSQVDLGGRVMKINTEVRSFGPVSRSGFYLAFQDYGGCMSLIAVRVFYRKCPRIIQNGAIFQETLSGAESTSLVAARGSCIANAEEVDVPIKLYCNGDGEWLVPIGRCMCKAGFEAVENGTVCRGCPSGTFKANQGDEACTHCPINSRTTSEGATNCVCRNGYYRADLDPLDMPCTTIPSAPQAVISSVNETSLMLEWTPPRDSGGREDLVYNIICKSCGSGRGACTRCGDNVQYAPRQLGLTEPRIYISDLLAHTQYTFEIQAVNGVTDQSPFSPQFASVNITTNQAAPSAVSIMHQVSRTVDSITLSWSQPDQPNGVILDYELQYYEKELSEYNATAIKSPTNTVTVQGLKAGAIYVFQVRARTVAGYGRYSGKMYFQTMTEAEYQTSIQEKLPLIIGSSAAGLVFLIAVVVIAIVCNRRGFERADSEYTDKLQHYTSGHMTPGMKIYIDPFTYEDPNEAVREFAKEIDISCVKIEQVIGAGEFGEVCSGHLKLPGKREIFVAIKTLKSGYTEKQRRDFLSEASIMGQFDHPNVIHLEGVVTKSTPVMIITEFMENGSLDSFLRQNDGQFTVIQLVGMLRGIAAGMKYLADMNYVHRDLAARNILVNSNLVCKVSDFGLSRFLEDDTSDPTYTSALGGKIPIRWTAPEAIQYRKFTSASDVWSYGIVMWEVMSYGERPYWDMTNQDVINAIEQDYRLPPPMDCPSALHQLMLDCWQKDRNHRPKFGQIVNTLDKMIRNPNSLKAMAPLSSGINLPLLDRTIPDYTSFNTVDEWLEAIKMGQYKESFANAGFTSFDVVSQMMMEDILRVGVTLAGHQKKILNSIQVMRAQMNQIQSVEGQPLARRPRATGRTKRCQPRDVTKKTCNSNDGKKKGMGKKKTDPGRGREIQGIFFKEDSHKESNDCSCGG

LOK = molecular target: T3, LOK (Homo sapiens, UniProt O94804)
T3 construct: gene STK10
T3 sequence (O94804 whole entry): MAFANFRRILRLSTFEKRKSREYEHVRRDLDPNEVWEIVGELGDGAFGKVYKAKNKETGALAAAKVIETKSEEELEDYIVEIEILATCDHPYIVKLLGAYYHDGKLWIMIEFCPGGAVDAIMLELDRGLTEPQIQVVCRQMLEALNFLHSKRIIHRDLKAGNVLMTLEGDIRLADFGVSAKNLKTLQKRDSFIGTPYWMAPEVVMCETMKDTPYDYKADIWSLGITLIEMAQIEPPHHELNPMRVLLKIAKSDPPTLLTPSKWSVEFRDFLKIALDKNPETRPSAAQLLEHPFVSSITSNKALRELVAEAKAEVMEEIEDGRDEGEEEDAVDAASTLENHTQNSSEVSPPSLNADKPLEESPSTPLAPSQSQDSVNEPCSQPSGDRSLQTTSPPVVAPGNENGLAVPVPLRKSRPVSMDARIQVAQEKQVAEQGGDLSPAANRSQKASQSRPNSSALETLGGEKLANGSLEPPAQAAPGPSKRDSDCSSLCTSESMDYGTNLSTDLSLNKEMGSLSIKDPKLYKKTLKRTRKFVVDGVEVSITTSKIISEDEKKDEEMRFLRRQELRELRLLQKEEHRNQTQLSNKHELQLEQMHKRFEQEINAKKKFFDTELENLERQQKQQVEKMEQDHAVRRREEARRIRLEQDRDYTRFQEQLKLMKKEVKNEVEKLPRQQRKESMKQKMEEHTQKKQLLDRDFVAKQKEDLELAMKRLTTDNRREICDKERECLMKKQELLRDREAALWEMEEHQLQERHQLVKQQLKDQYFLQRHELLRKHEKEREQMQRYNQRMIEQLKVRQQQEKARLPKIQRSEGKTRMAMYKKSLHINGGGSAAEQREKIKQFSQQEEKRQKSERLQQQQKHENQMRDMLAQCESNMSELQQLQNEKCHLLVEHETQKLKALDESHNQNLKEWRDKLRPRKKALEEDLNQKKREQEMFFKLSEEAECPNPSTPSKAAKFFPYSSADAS

PIK3CA(E545K) = PIK3CA(E545K) (Homo sapiens, UniProt P42336, E545K)
PIK3CD = PIK3CD (Homo sapiens, UniProt O00329)
PKN2 = PKN2 (Homo sapiens, UniProt Q16513)
PRKCH = PRKCH (Homo sapiens, UniProt P24723)
Chain of PRKCH (P24723 whole entry): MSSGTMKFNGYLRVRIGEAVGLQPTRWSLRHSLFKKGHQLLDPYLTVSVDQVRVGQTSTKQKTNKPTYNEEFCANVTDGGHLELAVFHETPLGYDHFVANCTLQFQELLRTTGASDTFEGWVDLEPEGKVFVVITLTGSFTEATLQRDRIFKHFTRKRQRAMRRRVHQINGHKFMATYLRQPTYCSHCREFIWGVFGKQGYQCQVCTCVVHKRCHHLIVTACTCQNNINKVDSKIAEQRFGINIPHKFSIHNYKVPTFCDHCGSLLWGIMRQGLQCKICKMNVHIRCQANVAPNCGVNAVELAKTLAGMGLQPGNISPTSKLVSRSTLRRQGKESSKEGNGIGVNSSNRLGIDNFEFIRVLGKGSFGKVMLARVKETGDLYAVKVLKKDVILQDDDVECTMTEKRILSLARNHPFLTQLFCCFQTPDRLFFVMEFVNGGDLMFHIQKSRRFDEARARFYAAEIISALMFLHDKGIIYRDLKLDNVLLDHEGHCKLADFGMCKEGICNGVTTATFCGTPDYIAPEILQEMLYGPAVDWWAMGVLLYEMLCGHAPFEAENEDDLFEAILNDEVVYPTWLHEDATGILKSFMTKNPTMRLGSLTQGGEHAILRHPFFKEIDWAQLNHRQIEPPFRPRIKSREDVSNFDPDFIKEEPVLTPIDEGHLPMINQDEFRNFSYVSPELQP

PRKD3 = PRKD3 (Homo sapiens, UniProt O94806)
[2] = molecular target: T4, RSK2(Kin.Dom.1-N-terminal) (Homo sapiens, UniProt P51812)
T4 construct: gene RPS6KA3; Kin.Dom.1-N-terminal

SLK = SLK (Homo sapiens, UniProt Q9H2G2)
Chain of SLK (Q9H2G2 whole entry): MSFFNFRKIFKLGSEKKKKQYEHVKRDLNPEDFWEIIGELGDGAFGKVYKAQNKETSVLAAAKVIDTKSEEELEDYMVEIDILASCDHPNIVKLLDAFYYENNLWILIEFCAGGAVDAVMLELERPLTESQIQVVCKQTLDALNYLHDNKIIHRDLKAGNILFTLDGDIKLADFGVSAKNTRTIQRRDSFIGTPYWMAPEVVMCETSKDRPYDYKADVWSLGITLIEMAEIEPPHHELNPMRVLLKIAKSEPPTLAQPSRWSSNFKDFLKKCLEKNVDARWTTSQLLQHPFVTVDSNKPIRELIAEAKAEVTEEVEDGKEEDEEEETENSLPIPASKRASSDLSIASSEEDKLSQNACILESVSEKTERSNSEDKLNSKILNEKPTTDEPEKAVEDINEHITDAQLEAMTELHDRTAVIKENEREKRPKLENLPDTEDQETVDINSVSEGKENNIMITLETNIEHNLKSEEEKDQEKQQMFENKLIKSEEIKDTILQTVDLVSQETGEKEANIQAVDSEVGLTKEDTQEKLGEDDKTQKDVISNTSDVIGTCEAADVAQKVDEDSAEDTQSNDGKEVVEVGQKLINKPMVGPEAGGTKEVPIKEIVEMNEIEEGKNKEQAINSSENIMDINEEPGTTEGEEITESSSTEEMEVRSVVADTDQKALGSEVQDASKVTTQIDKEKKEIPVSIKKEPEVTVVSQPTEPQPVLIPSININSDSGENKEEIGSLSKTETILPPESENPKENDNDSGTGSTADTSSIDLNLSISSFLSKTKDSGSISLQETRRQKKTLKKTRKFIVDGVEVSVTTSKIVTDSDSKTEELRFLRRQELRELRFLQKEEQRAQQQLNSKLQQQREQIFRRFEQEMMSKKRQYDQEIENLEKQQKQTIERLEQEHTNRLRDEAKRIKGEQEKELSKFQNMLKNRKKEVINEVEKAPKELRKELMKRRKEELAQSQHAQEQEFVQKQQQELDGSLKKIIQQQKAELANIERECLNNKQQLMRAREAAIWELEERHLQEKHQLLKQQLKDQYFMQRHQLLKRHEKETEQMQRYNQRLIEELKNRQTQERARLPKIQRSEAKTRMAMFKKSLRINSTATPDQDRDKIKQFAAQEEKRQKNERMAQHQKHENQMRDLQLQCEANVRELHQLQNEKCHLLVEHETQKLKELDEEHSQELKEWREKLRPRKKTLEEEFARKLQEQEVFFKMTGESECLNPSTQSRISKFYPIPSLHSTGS

SNRK = SNRK (Homo sapiens, UniProt Q9NRH2)
STK35 = STK35 (Homo sapiens, UniProt Q8TDR2)
SgK110 = molecular target: T5, SgK110 (Homo sapiens, UniProt P0C264)
T5 construct: gene SBK3
T5 sequence (P0C264 whole entry): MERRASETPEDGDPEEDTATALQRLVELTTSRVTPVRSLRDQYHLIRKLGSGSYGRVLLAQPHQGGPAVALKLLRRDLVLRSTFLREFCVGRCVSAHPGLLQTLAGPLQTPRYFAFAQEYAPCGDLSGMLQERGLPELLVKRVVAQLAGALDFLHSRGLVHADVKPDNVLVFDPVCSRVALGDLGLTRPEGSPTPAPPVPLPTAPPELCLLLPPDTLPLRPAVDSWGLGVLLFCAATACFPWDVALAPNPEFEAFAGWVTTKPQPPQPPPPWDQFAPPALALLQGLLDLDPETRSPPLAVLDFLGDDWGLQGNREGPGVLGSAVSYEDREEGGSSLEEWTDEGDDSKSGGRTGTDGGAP

TRKB = molecular target: T6, TRKB (Homo sapiens, UniProt Q16620)
T6 construct: gene NTRK2

ULK1 = ULK1 (Homo sapiens, UniProt O75385)

Work on `c1ccc2c(c1)Sc1ccccc1N2CCN1CCOCC1` [J54] yielded a remaining binding [1] of 93%, a remaining binding (ASK1) of 98% and a remaining binding (CDK7) of 74%. It also gave a remaining binding (EIF2AK1) of 90%, a remaining binding (EPHB2) of 100% and a remaining binding (LOK) of 100%. It also gave a remaining binding (PIK3CA(E545K)) of 100%, a remaining binding (PIK3CD) of 100% and a remaining binding (PKN2) of 69%. The remaining binding (PRKCH) was 94%, the remaining binding (PRKD3) was 100% and the remaining binding [2] was 97%. The remaining binding (SLK) was 100%, the remaining binding (SNRK) was 59% and the remaining binding (STK35) was 82%. It also gave a remaining binding (SgK110) of 100%, a remaining binding (TRKB) of 89% and a remaining binding (ULK1) of 99%.
